Experimental data taken from patent US20260240762A1, “COMPOUND AND FORMULATION FOR SYSTEMIC THERAPY BY ORAL TRANSMUCOSAL ADMINISTRATION” (CUROVIR AB, priority 2023, published 2026).

Tests used:
Format in all cases: biochemical
PI4KB = PI4KB (Homo sapiens, UniProt Q9UBF8); assay: PI4 kinase inhibition, ADP-Glo Kinase assay; settings: 60 min, 10 μM ATP
Protocol: (§1) Inhibition of PI4 kinases was performed with the ADP-Glo™ Kinase assay which measures the ADP formed from a kinase reaction, where ADP is converted into ATP and then converted into light by Ultra-Glo™ Luciferase. Reactions were carried out for 60 min at 10 μM ATP. The luminescent signal produced in reaction is proportional to the kinase activity.

PI4K2A = PI4K2A (Homo sapiens, UniProt Q9BTU6); assay: PI4 kinase inhibition, ADP-Glo Kinase assay; settings: 60 min, 10 μM ATP, not tested at concentration higher than 10 μM
Protocol: as §1

PI4KA = PI4KA (Homo sapiens, UniProt P42356); assay: PI4 kinase inhibition, ADP-Glo Kinase assay; settings: 60 min, 10 μM ATP
Protocol: as §1

PI4K2B = PI4K2B (Homo sapiens, UniProt Q8TCG2); assay: PI4 kinase inhibition, ADP-Glo Kinase assay; settings: 60 min, 10 μM ATP, not tested at concentration higher than 10 μM
Protocol: as §1

PI3KB (p110b/p85a) = PI3KB (p110b/p85a) (Homo sapiens, UniProt P42338); assay: PI3 kinase inhibition, HTRF assay
Text: (§2) Inhibition of PI3 kinases was studied using the HTRF (homogeneous time-resolved fluorescence) assay which is a universal method for identifying and characterizing the phosphotransferase activity induced by any ATP/ADP dependent target. The formation of ADP was detected by a specific monoclonal antibody labeled with Eu^3+ cryptate; the amount of ADP formed directly correlates with the amount of phosphorylated substrate in kinase assays.

PI3K (p120g) = PI3K (p120g) (Homo sapiens, UniProt P48736); assay: PI3 kinase inhibition, HTRF assay; settings: not tested at concentration higher than 1 μM
Text: as §2

PI3KA (p110a/p85a) = PI3KA (p110a/p85a) (Homo sapiens, UniProt P42336); assay: PI3 kinase inhibition, HTRF assay
Text: as §2

Sequence of PI4KB (Q9UBF8 whole entry, species assumed): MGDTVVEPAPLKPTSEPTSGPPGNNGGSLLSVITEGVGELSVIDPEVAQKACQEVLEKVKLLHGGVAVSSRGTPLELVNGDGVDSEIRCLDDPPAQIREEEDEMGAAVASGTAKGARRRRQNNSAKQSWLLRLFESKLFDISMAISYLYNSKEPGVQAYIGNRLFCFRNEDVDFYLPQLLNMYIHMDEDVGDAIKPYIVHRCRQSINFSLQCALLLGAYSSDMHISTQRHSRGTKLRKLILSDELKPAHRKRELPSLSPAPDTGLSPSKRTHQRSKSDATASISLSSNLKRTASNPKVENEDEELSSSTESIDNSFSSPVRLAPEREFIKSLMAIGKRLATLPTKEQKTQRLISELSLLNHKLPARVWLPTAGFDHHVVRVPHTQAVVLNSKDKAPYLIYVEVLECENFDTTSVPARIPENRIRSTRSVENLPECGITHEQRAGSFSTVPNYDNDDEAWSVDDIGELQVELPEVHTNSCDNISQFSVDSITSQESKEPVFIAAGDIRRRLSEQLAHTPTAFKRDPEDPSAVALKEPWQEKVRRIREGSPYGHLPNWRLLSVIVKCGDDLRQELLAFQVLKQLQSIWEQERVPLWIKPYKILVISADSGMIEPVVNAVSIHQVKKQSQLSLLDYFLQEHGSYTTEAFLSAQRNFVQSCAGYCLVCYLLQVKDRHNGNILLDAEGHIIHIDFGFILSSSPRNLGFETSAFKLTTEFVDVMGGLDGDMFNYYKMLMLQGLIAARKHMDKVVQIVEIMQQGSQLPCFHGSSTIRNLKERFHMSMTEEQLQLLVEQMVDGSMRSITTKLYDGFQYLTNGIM
Sequence of PI3KB (p110b/p85a) (P42338 whole entry): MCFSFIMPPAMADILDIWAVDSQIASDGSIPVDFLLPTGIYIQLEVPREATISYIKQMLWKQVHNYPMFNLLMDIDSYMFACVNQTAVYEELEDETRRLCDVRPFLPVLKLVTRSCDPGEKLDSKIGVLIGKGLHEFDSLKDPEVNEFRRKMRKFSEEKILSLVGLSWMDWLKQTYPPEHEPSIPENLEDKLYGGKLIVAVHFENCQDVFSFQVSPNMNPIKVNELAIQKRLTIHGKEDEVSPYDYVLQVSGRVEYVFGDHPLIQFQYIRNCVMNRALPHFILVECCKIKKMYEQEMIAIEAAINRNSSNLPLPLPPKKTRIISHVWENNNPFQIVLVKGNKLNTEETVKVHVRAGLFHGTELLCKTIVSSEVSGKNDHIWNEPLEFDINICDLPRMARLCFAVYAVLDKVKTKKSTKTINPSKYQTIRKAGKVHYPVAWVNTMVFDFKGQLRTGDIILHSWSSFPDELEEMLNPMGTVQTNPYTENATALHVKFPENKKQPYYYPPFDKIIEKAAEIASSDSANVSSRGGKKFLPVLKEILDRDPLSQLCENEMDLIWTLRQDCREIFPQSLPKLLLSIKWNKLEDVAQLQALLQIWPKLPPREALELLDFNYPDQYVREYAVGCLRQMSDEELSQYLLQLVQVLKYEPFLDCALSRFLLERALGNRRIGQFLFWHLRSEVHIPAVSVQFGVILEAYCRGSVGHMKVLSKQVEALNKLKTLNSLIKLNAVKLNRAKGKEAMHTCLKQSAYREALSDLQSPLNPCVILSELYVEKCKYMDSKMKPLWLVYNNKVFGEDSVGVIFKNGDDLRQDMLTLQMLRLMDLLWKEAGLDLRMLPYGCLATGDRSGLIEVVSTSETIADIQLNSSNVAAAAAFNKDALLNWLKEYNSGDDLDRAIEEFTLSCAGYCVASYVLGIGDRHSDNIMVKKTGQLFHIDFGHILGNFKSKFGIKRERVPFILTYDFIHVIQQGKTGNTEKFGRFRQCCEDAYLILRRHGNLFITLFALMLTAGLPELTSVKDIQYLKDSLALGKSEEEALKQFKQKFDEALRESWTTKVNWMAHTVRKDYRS
Sequence of PI3KB (p110b/p85a) (P27986 whole entry partner): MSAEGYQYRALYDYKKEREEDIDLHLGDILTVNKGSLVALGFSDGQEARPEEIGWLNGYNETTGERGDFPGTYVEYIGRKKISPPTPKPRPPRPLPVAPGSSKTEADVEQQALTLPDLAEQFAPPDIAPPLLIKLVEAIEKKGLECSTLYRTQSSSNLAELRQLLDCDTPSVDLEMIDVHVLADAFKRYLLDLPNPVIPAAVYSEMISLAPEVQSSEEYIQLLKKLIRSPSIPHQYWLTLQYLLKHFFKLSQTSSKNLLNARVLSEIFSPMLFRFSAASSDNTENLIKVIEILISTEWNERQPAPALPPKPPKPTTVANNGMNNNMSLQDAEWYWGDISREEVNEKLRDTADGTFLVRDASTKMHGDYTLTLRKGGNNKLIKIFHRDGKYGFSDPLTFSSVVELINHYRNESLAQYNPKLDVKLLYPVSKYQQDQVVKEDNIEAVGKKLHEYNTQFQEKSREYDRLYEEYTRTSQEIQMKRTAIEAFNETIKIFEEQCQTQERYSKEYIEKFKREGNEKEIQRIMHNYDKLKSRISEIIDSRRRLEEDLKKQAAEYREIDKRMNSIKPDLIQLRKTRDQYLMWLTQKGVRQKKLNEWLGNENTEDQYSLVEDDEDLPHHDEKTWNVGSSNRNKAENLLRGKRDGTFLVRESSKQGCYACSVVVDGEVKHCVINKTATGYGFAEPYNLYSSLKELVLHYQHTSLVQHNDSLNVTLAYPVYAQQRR
Sequence of PI3K (p120g) (P48736 whole entry): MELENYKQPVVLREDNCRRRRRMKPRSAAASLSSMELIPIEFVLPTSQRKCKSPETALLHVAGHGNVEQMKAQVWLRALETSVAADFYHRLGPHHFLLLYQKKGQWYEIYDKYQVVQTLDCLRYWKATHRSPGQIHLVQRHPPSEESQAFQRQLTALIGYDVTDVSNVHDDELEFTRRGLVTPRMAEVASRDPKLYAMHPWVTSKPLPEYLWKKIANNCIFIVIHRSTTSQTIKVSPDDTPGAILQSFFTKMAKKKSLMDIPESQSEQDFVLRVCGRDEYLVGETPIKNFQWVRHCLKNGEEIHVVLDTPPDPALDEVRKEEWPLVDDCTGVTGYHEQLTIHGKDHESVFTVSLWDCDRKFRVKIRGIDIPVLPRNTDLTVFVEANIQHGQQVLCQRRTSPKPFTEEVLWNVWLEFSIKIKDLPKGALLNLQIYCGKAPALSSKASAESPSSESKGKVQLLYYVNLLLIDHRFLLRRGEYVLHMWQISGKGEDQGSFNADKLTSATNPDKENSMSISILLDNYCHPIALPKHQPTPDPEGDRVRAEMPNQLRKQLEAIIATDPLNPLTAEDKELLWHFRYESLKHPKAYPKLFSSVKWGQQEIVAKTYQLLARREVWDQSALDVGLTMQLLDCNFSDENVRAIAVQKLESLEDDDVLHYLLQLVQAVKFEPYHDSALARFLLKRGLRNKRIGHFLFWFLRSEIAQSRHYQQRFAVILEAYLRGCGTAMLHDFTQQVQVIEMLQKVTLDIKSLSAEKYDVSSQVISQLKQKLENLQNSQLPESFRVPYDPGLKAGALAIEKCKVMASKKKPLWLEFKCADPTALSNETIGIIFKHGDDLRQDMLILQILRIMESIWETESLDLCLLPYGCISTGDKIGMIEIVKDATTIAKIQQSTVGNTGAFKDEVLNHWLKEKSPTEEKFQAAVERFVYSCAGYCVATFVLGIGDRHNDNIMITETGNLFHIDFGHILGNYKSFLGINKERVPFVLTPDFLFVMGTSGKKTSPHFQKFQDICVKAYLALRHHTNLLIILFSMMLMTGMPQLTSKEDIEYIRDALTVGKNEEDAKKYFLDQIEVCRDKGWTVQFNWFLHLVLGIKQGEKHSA
Sequence of PI4K2A (Q9BTU6 whole entry, species assumed): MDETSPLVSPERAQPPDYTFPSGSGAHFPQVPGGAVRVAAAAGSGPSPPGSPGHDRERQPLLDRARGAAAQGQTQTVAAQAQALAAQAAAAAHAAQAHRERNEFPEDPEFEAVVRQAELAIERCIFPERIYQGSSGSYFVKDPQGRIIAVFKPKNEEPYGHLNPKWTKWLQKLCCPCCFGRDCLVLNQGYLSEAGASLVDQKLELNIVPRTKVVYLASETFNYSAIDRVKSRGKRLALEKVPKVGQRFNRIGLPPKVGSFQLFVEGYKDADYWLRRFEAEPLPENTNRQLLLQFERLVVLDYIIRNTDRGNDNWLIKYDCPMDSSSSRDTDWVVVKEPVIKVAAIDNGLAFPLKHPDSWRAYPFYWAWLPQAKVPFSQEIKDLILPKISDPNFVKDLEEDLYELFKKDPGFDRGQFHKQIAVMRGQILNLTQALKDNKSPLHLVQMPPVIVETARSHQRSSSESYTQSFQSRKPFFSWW
Sequence of PI4K2B (Q8TCG2 whole entry, species assumed): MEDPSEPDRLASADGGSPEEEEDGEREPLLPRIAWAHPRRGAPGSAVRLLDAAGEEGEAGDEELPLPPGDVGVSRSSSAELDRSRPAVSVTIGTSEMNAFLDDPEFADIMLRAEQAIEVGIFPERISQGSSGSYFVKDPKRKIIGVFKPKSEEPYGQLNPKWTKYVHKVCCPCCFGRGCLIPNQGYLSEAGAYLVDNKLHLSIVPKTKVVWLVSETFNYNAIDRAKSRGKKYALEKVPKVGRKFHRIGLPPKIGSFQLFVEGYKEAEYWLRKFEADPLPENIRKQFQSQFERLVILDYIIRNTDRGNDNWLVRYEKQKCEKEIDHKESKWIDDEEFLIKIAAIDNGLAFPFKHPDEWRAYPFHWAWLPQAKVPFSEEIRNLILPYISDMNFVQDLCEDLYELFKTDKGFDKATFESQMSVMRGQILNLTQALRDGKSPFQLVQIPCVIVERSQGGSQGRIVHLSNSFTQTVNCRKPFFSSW

SMILES: Cc1cc(CNc2cc(C)nc3c(-c4ccc5c(c4)c(C)nn5C)c(C)nn23)ccn1 [3-(1,3-dimethyl-1H-indazol-5-yl)-2,5-dimethyl-N-[(2-methylpyridin-4-yl)methyl]pyrazolo[1,5-a]pyrimidin-7-amine]
- IC50 (PI4KB): 0.6 nM
- IC50 (PI4K2A): > 10 µM
- IC50 (PI4KA): 1100 nM
- IC50 (PI4K2B): > 10 µM
- IC50 (PI3KB (p110b/p85a)): 5.4 µM
- IC50 (PI3K (p120g)): > 1000 nM
- IC50 (PI3KA (p110a/p85a)): 3.4 µM
